According to patent US20250251402A1, “METHODS OF DETECTING MOLECULAR AGGREGATES USING IMAGE CORRELATION SPECTROSCOPY (ICS)” (The General Hospital Corporation, priority 2022, published 2025):

What was measured:
Format in all cases: cell-based
[1] = tested on: HT1080 cells; test: γH2AX immunofluorescence ICS DA and nuclear intensity in HT1080 cells; conditions: HT1080, 1 μM PARPi overnight
Method: (§1) Cells were plated in 8-well […] slides (Thermo or Ibidi) to achieve 50% confluence overnight. Cells were then treated and fixed with 4% paraformaldehyde in PBS at room temperature for 10 minutes. Antibody staining was performed according to the manufacturers protocol. Following fluorescent secondary antibody labeling, prolong gold with DAPI (Cell Signaling Technologies) was added and samples were stored for up to 1 week prior to imaging.
ICS analysis was performed in MATLAB as previously described (41). Briefly, nuclei were segmented from the DAPI channel with the MATLAB function, imbinarize, converting the greyscale image to a binary dependent on an automatically defined threshold. The MATLAB function, regionprops, was used to identify single nuclei as objects. Each nucleus was used as a mask to perform ICS analysis on the antibody-stained channel, within size limitations for a nucleus (objects >400 and <3000 pixels). To ensure the analysis of antibody stained nuclei, nuclei under an average intensity of 200 au after background subtraction were excluded. The spatial autocorrelation functions were calculated using Fourier methods, then fit to a 2D Gaussian using a nonlinear least-squares algorithm (41). Using the outputs of the fitting, the mean number of independent emitting fluorescent entities per focal spot area and subsequently the DA were determined (59). DA measurements across experiments were normalized by the control in each dataset. […] Any DA values exceeding 3 standard deviations from the mean were defined as incorrectly segmented and removed. Data were plotted in Prism and analysis performed in Prism or Excel.

[2] = tested on: HCC1937 cells; test: 53BP1-mApple condensate anisotropy (homo-FRET) and intensity in HCC1937 cells; conditions: HCC1937, 1 μM PARPi and 100 μM TMZ for 1 hour
Method: All fluorescence imaging was performed on an Olympus FV1000 multiphoton/confocal microscope. Anisotropy measurements were performed through custom modifications to the imaging system as previously described (30). Briefly, linear polarization of two photon excitation light at 910 nm (MaiTai femtosecond laser, Spectra Physics) was controlled by a glan-thompson prism and half wave plate. […] was collected in orthogonal orientations through two detectors, parallel and perpendicular to excitation polarization, through a polarizing beam splitter that replaced a dichroic mirror in the emission filter cube. The alignment and detector gain and noise were validated each imaging session through measurements of a standard slide. Images were taken with an Olympus 25× XLPlan N objective, NA 1.05, and 3× digital zoom. Confocal imaging was performed with an Olympus XLUMPlanFL N 20× objective, NA 1.00 with chromatic correction, and 3× digital zoom.
Cells were grown on 12 mm round, uncoated, sterilized glass coverslips in 24-well plates for 24 hours. Cells were treated with PARPi and 100 μM TMZ for 1 hour or 10 nM GMX1778 overnight followed by 100 μM TMZ for 1 hour. TMZ was added to stimulate new DNA damage induced condensates in the presence of PARPi or NAD″ depletion. Cells were then transferred to the microscope for anisotropy imaging. Images were analyzed in MATLAB. Nuclei were segmented through intensity thresholding and condensates were segmented through further intensity thresholding with a higher threshold. Values of segmented nuclei and condensates were determined through the regionprops function. Segmentation was corrected through area restrictions to ensure that regions of interest were isolated condensates. The thresholding parameters were consistent throughout experiments. The average intensity and anisotropy of each segmented nuclei or condensate was then calculated. Data were plotted in Prism and analysis performed in Prism or Excel.

[3] = tested on: 7 cell lines; test: γH2AX immunofluorescence DA and intensity in 7 cell lines; conditions: all cell lines, 1 μM PARPi overnight
Method: as §1
ICS analysis was performed in MATLAB as previously described (41). Briefly, nuclei were segmented from the DAPI channel with the MATLAB function, imbinarize, converting the greyscale image to a binary dependent on an automatically defined threshold. The MATLAB function, regionprops, was used to identify single nuclei as objects. Each nucleus was used as a mask to perform ICS analysis on the antibody-stained channel, within size limitations for a nucleus (objects >400 and <3000 pixels). To ensure the analysis of antibody stained nuclei, nuclei under an average intensity of 200 au after background subtraction were excluded. The spatial autocorrelation functions were calculated using Fourier methods, then fit to a 2D Gaussian using a nonlinear least-squares algorithm (41). Using the outputs of the fitting, the mean number of independent emitting fluorescent entities per focal spot area and subsequently the DA were determined (59). […]

[4] = tested on: SKOV3 cells; test: γH2AX immunofluorescence in SKOV3 cells (intensity, Imaris Spots, ICS TNoP and DA)
From the text: (§2) For the ICS analysis, nuclei were segmented from the DAPI channel using a watershed approach in MATLAB. Briefly, we applied a difference of gaussians for size-based feature extraction of nuclei in the image (upper gaussian σ=100, lower gaussian σ=2-5 dependent on cell size). This feature enhanced image was then binarized to create a primary mask (using the function imbinarize) and connected components under 100 pixels were removed (using the function bwareaopen). We then created a distance transform of the resulting binary image (using the function bwdist). Seed points were determined by finding the regional maximum of a gaussian filtered image, with a gaussian σ of appropriate size for seed point detection (σ×7 or 8 dependent on cell size). The seed points were applied to the distance transform, and we applied the watershed function to the resulting image to obtain masks for each nucleus (extracted using the function regionprops).
(§3) Using the nucleus masks, we performed ICS analysis on the antibody-stained channel, within size limitations for a nucleus (objects >400 and <2400 pixels). Intensity, DA and TNOP were calculated for each cell. In this analysis, since the ROI is defined by the nucleus mask (segmented from nuclear signal using DAPI staining), TNoP represents the total number of particles per nucleus, with the image area being the number of pixels in each nuclear mask.
(§4) Measurements across experiments were normalized by the control in each dataset. […] Data were plotted in Prism and statistical analysis was performed in Excel.
(§5) Imaris spots analysis were performed with Imaris 9.8 with background subtraction, using a spot size of 1 μm that was measured from the smallest distinguishable foci from the control image. For images with multiple nuclei, ImarisCell was used with the detection type “cell and vesicles”, where the nucleus in the DAPI channel was modelled as the “cell” and antibody-labeled foci were modelled as the “vesicles”. This enabled us to count the number of foci per nucleus for multiple cells. In each dataset, the automatic “quality” threshold was determined from the control image and the same threshold was used for every image in the dataset to be able to compare the outputs across datasets. Similar to the ICS analysis, only cells with an area between 400-2400 voxels were included for analysis.
(§6) All chemicals were purchased from Sigma unless otherwise noted. All drugs were purchased from Selleck Chemicals. Cells were cultured in media supplemented with 10% fetal bovine serum and 1% penicillin/streptomycin. OVCA429 were originally obtained from Dr. Michael Birrer and cultured in DMEM. SKOV3 was obtained from ATCC and cultured in RPMI. For MMS treatment, cells were incubated for 6 hours before fixation with 4% formaldehyde, whereas for treatment with PARP inhibitors, cells were incubated for 24 hours before fixation.
(§7) Cells were plated in 8-well slides (Fisher) to achieve 50% confluence overnight. Cells were then treated and fixed with 4% formaldehyde in PBS at room temperature for 10 minutes. Antibody staining was performed according to the manufacturers protocol (Cell Signaling Technologies or Abcam). Primary antibodies used were γH2AX (CST, #2577), RPA1 (CST, #2267) and RAD51 (Abcam, 63801), with Anti-rabbit IgG Fab2 Alexa Fluor 647 (CST, #4414) as the secondary fluorescent antibody. After antibody labeling, prolong gold with DAPI (CST) was added and samples were stored for up to 1 week prior to imaging. Confocal imaging was performed on an Olympus FV1000 multiphoton/confocal microscope using an Olympus XLUMPlanFL N 20× objective, NA 1.00 with chromatic correction, and 3× digital zoom. DAPI was excited with a 405 nm laser, while Alexa Fluor 647 was excited with a 635 nm laser. A multiband (DM 405/488/561/633 nm) dichroic mirror was used to direct the excitation laser and collect emission. […]

[5] = tested on: OVCA429 cells; test: γH2AX immunofluorescence in OVCA429 cells (intensity, Imaris Spots, ICS TNoP and DA)
From the text: as §2, §3, §4, §5, §6, §7

[6] = tested on: SKOV3 cells; test: RPA1 immunofluorescence in SKOV3 cells (Imaris Spots, ICS DA)
From the text: as §2, with “The seed points were applied to the distance transform, and we applied the watershed function to the resulting image to obtain masks for each nucleus (extracted using the function regionprops).” left out
(§8) Using the nucleus masks, we performed ICS analysis on the antibody-stained channel, within size limitations for a nucleus (objects >400 and <2400 pixels). Intensity, DA and TNOP were calculated for each cell. […]
(§9) Imaris spots analysis were performed with Imaris 9.8 with background subtraction, using a spot size of 1 μm that was measured from the smallest distinguishable foci from the control image. […] In each dataset, the automatic “quality” threshold was determined from the control image and the same threshold was used for every image in the dataset to be able to compare the outputs across datasets. […]

[7] = tested on: OVCA429 cells; test: RPA1 immunofluorescence in OVCA429 cells (Imaris Spots, ICS DA)
From the text: as §2, with “The seed points were applied to the distance transform, and we applied the watershed function to the resulting image to obtain masks for each nucleus (extracted using the function regionprops).” left out
as §8, §9

[8] = tested on: SKOV3 cells; test: RAD51 immunofluorescence in SKOV3 cells (Imaris Spots, ICS DA)
From the text: as §2, §3
Imaris spots analysis were performed with Imaris 9.8 with background subtraction, using a spot size of 1 μm that was measured from the smallest distinguishable foci from the control image. For images with multiple nuclei, ImarisCell was used with the detection type “cell and vesicles”, where the nucleus in the DAPI channel was modelled as the “cell” and antibody-labeled foci were modelled as the “vesicles”. This enabled us to count the number of foci per nucleus for multiple cells. In each dataset, the automatic “quality” threshold was determined from the control image and the same threshold was used for every image in the dataset to be able to compare the outputs across datasets. […]

[9] = tested on: OVCA429 cells; test: RAD51 immunofluorescence in OVCA429 cells (Imaris Spots, ICS DA)
From the text: as §2, with “The seed points were applied to the distance transform, and we applied the watershed function to the resulting image to obtain masks for each nucleus (extracted using the function regionprops).” left out
as §8, §9

Row | Compound | γH2AX levels measured by intensity [1] | 53BP1-mApple condensate anisotropy vs control [2] | γH2AX levels (intensity) over control [3] | ICS degree of aggregation (DA) of γH2AX, dose dependence ([4]; SKOV3) | Normalized γH2AX intensity, increase ([4]; SKOV3, highest MMS dose, normalized to untreated control) | ICS DA of γH2AX, dose dependence ([5]; OVCA429) | ICS TNoP of γH2AX, dose dependence ([5]; OVCA429) | Imaris Spots analysis of γH2AX, dose dependence ([5]; OVCA429) | γH2AX intensity ([5]; OVCA429, 1 mM MMS) | RPA1 clustering (Spots analysis and ICS DA), dose dependence [6] | RPA1 Imaris Spots analysis, dose dependence ([7]; OVCA429) | RPA1 ICS DA, increase in aggregation ([7]; OVCA429, 1 mM MMS) | RAD51 ICS DA, dose dependence ([8]; SKOV3) | RAD51 Imaris Spots analysis, dose dependence ([8]; SKOV3) | RAD51 ICS DA, increase over control ([8]; SKOV3, 1 mM MMS) | RAD51 ICS DA, dose dependence [9] | RAD51 Imaris Spots analysis, dose dependence [9]
1 | Cn1ncnc1[C@H]1c2n[nH]c(=O)c3cc(F)cc(c23)N[C@@H]1c1ccc(F)cc1 [talazoparib] | high levels of γH2AX | significantly lower condensate anisotropy compared to control | increased γH2AX levels |  |  |  |  |  |  |  |  |  |  |  |  |  | 
2 | COS(C)(=O)=O [MMS, methyl methane-sulfonate] |  |  |  | dose dependence | ~8 × | results similar to Spots analysis | did not produce any MMS dose dependence | captured the MMS dose dependent DNA damage | drastically increases | dose dependent increase in RPA1 clustering | more modest increase with increasing MMS dose | exceeding 2.5 × of control | dose dependent increases in aggregation | did not show an overall MMS dose dependency | 3 × | dose dependent increases in aggregation | did not show an overall MMS dose dependency
